Measured values reported in PMC8584173, “The Cytotoxic Effect of Copper (II) Complexes with Halogenated 1,3-Disubstituted Arylthioureas on Cancer and Bacterial Cells” (International Journal of Molecular Sciences, 2021).
“And” between values parts separate entries of the source, which are not always exact repeats. Equal entries are not always repeated.

How the values were obtained:
[1] = test system: Peroxiredoxin-1 (PRDX1_HUMAN); experiment: LC–MS proteome analysis, PRDX1; type: cell-based, Homo sapiens; details: IC50 concentration, % of control
Experimental: (§1) Enzymes involved in oxidoreductive potential were analyzed in the cell lysates obtained after treatment cells with selected conjugates for 24 h. Cells were washed with phosphate-buffered saline (PBS) and harvested, then centrifuged at 1000× g for 10 min. Then, lysis buffer (containing protease inhibitor, 1% RIPA Lysis and Extraction Buffer (ThermoFisher)) and cold PBS were added, and samples were sonicated three times in ice bath. Next, the cell lysates were centrifuged at 14,000× g at 4 °C for 15 min, and then supernatants were stored at […] before use. Protein concentration was measured by the Bradford method.
(§2) Normalized protein concentrations (5 µg) from cell lysate were precipitated by ice cold (–20 °C) acetonitrile (ACN, Merck, in ratio 1:4). Then, samples were centrifuged (–9 °C, 30 min., 18,000× g), the supernatant was discarded and ACN excess was evaporated using a vacuum centrifuge (5 min., room temp.). Protein pellet was dissolved in 40 mM ammonium bicarbonate. An amount of 500 mM dithiothreitol (DTT, with final concentration 20 mM) and 1 M iodoacetamide (IAA, with final concentration 40 mM) were used for reduction and alkylation processes. After 16 h of incubation in 37 °C with Trypsin Gold (Promega), digested protein samples were diluted with 0.1% formic acid (ThermoFisher) and centrifuged (+2 °C, 30 min, 18,000× g).
(§3) LC–MS analysis was carried out with the use of nanoUHPLC (nanoElute, Bruker) coupled by CaptiveSpray (Bruker) to ESI-Q-TOF mass spectrometer (Compact, Bruker). Two-column separation method was used, i.e., pre-column (300 µm × 5 mm, C18 PepMap 100, 5 µm, 100Å, Thermo Scientific) and Aurora separation column with CSI fitting (75 µm × 250 mm, C18 1.6 µm) in gradient 2% B to 35% B in 90 min with the 300 nL/min flow rate. Mobile phases (A) 0.1% formic acid in water and (B) 0.1% formic acid in ACN were used.
(§4) Sample ionizations were performed at a gas flow of 3.0 L/min, temperature of 150 °C and voltage of the capillary at 1600 V. The quadrupole energy was fixed to 5.0 eV and collision chamber energy 7.0 eV, with an ion transfer time of 90 µs. The ions were analyzed in the positive polarity mode in the range 150–2200 m/z, with the acquisition frequency of the 1 Hz spectrum, as well as with the autoMS/MS system.
(§5) The collected spectra were analyzed and calibrated using DataAnalysis software (Bruker) and then identified in ProteinScape (Bruker) by the MASCOT server. Protein identification was conducted using the online SwissProt and NCBIprot databases, and their references and biological significance were identified using Reactome.org, String.org and KEGG.

[2] = test system: Glutathione S-transferase omega-1 (GSTO1_HUMAN); experiment: LC–MS proteome analysis, GSTO1; type: cell-based, Homo sapiens; details: IC50 concentration, % of control
Experimental: as §1, §2, §3, §4, §5

[3] = test system: clinical methicillin-resistant strains of S. aureus (MRSA) and S. epidermidis (MRSE); experiment: MIC, clinical strains; type: cell-based, Staphylococcus
Experimental: (§6) The antimicrobial activity of the compounds was tested on Gram-positive bacteria (Staphylococcus aureus NCTC 4163, Staphylococcus aureus ATCC 25923, Staphylococcus aureus ATCC 6538, Staphylococcus aureus ATCC 29213, Staphylococcus epidermidis ATCC 12228, Staphylococcus epidermidis ATCC 35984), Gram-negative rods (Escherichia coli ATCC 10538, Escherichia coli ATCC 25922, Pseudomonas aeruginosa ATCC 15442, Pseudomonas aeruginosa ATCC 27863) and yeasts (Candida albicans ATCC 10231, Candida albicans ATCC 90028, Candida parapsilosis ATCC 22019). Hospital methicillin-resistant strains of Staphylococcus aureus and Staphylococcus epidermidis were obtained from the collection of the Department of Pharmaceutical Microbiology, Medical University of Warsaw, Poland.
(§7) Antifungal activities were assessed using Mueller–Hinton agar + 2% glucose and 0.5 µg/mL methylene blue dye medium. Sterile filter paper discs (9 mm diameter, Whatman Number 3 chromatography paper) were dripped with tested compound solutions (in dimethylsulfoxide, DMSO) to load 400 μg of a given compound per disc. Dry discs were placed on the surface of appropriate agar medium. The results (diameter of the growth inhibition zone) were read after 18 h of incubation at 35 °C. Minimal inhibitory concentration (MIC) was tested by the twofold serial microdilution method (in 96-well microtiter plates) using Mueller–Hinton broth medium (Beckton Dickinson) for bacteria or RPMI-1640 medium for Candida species, according to CLSI guidelines. The stock solution of tested agent was prepared in DMSO and diluted in sterile water. […] The final inoculum of all studied microorganisms was 10^5 CFU/ mL^−1 (colony forming units per ml). Minimal inhibitory concentrations (the lowest concentration of a tested agent that prevents visible growth of a microorganism) were read after 18 h (bacteria) or 24 h (yeasts) of incubation at 35 °C.

[4] = test system: SW480 cells; experiment: Annexin V-FITC/PI flow cytometry, SW480; type: cell-based, human; details: for apoptosis of SW480 cells: at 4 μM (supplement text)
Experimental: The cells were cultured and harvested under the conditions described in the cell culture section. […] The effect of these compounds on the process of early and late apoptosis and necrosis was determined, as described previously, by dual staining with annexin V-FITC and propidium iodide according to manufacturer’s protocol (Becton Dickinson). The cells that were annexin V-FITC positive and PI-negative were identified as early apoptotic and annexin V-FITC and PI-positive as late apoptotic or necrotic.

[5] = test system: Peroxiredoxin-5, mitochondrial (PRDX5_HUMAN); experiment: LC–MS proteome analysis, PRDX5; type: cell-based, Homo sapiens; details: IC50 concentration, % of control
Experimental: as §1, §2, §3, §4, §5

[6] = test system: Candida species; experiment: MIC, Candida species; type: cell-based; details: studied Candida species
Experimental: as §6, §7

| Compound | Protein Intensity, % (PRDX1) ([1]; PC3, 24 h) | Protein Intensity, % (PRDX1) ([1]; SW480, 24 h) | Protein Intensity, % (PRDX1) ([1]; SW620, 24 h) | Protein Intensity, % (GSTO1) ([2]; PC3, 24 h) | Protein Intensity, % (GSTO1) ([2]; SW480, 24 h) | Protein Intensity, % (GSTO1) ([2]; SW620, 24 h) | MIC [3] | early apoptosis, % of cells ([4]; SW480, IC50 dose, 72 h) | late apoptosis, % of cells ([4]; SW480, IC50 dose, 72 h) | apoptosis of SW480 cells [4] | Protein Intensity, % (PRDX5) ([5]; PC3, 24 h) | Protein Intensity, % (PRDX5) ([5]; SW480, 24 h) | Protein Intensity, % (PRDX5) ([5]; SW620, 24 h) | growth inhibitory dose [6] |
| --- | --- | --- | --- | --- | --- | --- | --- | --- | --- | --- | --- | --- | --- | --- |
| O=[N+]([O-])c1cc([N+]2=C(Nc3ccc(I)cc3)[S][Cu-2]23[S]C(Nc2ccc(I)cc2)=[N+]3c2ccc(Cl)c([N+](=O)[O-])c2)ccc1Cl [Compound 8, Copper (II) complex with 1-(4-iodophenyl)-3-(4-chloro-3-nitrophenyl)thiourea] | 52.3% | 84.4% | 93.5% | 31.6% | 52.4% | 65.0% | 4 to 8 µg/mL | 48.9% ± 3.4% | 20.7% ± 2.8% | 47% | 42.0% | 81.7% | 74.4% | 64 µg/mL |
| O=[N+]([O-])c1cc([N+]2=C(Nc3ccc(F)c(Cl)c3)[S][Cu-2]23[S]C(Nc2ccc(F)c(Cl)c2)=[N+]3c2ccc(Cl)c([N+](=O)[O-])c2)ccc1Cl [Compound 4, Copper (II) complex with 1-(3-chloro-4-fluorophenyl)-3-(4-chloro-3-nitrophenyl)thiourea] |  |  |  |  |  |  | 4 to 8 µg/mL |  |  |  |  |  |  |  |
| O=[N+]([O-])c1cc([N+]2=C(Nc3ccccc3F)[S][Cu-2]23[S]C(Nc2ccccc2F)=[N+]3c2ccc(Cl)c([N+](=O)[O-])c2)ccc1Cl [Compound 7, Copper (II) complex with 1-(2-fluorophenyl)-3-(4-chloro-3-nitrophenyl)thiourea] | 46.5% | 71.6% | 83.2% | 68.6% | 45.1% | 52.5% | 4 to 8 µg/mL | ≤ 40% |  |  | 36.7% | 91.0% | 81.4% |  |
| O=[N+]([O-])c1cc([N+]2=C(Nc3cccc(Br)c3)[S][Cu-2]23[S]C(Nc2cccc(Br)c2)=[N+]3c2ccc(Cl)c([N+](=O)[O-])c2)ccc1Cl [Compound 2, Copper (II) complex with 1-(3-bromophenyl)-3-(4-chloro-3-nitrophenyl)thiourea] |  |  |  |  |  |  | 4 to 8 µg/mL |  |  |  |  |  |  | 64 µg/mL |
| O=[N+]([O-])c1cc([N+]2=C(Nc3ccc(Br)cc3)[S][Cu-2]23[S]C(Nc2ccc(Br)cc2)=[N+]3c2ccc(Cl)c([N+](=O)[O-])c2)ccc1Cl [Compound 3, Copper (II) complex with 1-(4-bromophenyl)-3-(4-chloro-3-nitrophenyl)thiourea] | 47.8% | 88.5% | 89.0% | 64.0% | 66.0% | 77.0% |  | ≤ 40% |  |  | 40.9% | 84.8% | 82.4% | 64 µg/mL |
| O=[N+]([O-])c1cc(NC2=[N+](c3ccc(Cl)c([N+](=O)[O-])c3)[Cu-2]3([S]2)[S]C(Nc2ccc(Cl)c([N+](=O)[O-])c2)=[N+]3c2ccc(Cl)c([N+](=O)[O-])c2)ccc1Cl [Compound 6, Copper (II) complex with 1,3-bis(4-chloro-3-nitrophenyl)thiourea] |  |  |  |  |  |  |  |  |  |  |  |  |  | 64 µg/mL |
| O=[N+]([O-])c1cc([N+]2=C(Nc3ccccc3Br)[S][Cu-2]23[S]C(Nc2ccccc2Br)=[N+]3c2ccc(Cl)c([N+](=O)[O-])c2)ccc1Cl [Compound 1, Copper (II) complex with 1-(2-bromophenyl)-3-(4-chloro-3-nitrophenyl)thiourea] | 73.9% | 95.9% | 96.1% | 65.0% | 70.9% | 85.5% | 4 to 8 µg/mL | 45.18% ± 3.9% |  | 47% | 29% and 29.3% | 77.3% | 88.3% |  |
